# According to patent US8536354B2, “Steroidal ligands and their use in gene switch modulation” (Intrexon Corporation, priority 2008, dated 2013):
# Like-named read-outs stand apart in the source and are kept apart here.
# Tests used:
# [1] = test system: D. melanogaster BII cell line (expresses the ecdysteroid receptor complex EcR-USP); experiment: Drosophila melanogaster BII cell line bioassay (turbidometric; agonist and antagonist versions); conditions: for EC50: read-out: EC50 (M), BII bioassay results
# [2] = target: T1, TmEcR (GAL4-EcR DEF with VP16-RXR partner) (Tenebrio molitor, UniProt O02035); experiment: Two-hybrid gene switch assay, luciferase reporter, TmEcR, mouse NIH3T3 cells; conditions: EC50, FIG. 14A/14B, GAL4-EcR(DEF)
# T1 sequence (O02035 194-491): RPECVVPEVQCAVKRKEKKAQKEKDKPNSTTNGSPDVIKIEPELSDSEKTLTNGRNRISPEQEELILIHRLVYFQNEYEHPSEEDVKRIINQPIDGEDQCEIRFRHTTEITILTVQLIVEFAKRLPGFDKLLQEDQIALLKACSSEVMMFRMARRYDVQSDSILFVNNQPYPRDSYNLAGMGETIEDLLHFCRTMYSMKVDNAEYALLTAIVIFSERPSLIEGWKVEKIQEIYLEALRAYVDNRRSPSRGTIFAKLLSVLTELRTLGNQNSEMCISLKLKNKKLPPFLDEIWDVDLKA
# T1 sequence (P28704 1-520 partner): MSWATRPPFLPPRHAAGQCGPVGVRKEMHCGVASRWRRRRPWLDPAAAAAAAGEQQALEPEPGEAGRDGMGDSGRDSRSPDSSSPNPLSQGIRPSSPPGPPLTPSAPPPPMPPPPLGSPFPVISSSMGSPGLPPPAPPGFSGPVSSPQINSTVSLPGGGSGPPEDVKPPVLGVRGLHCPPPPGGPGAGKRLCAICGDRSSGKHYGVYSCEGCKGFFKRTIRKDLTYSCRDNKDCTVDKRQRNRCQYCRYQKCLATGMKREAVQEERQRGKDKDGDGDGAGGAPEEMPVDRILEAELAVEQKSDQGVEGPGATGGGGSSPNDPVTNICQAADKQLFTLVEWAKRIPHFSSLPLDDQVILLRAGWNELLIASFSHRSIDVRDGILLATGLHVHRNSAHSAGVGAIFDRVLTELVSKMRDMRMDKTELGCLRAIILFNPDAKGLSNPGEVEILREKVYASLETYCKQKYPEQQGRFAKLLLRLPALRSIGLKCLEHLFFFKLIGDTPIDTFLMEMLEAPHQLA
# [3] = target: BmEcR (GAL4-EcR DEF with VP16-RXR-USP chimera) (Bombyx mori, UniProt P49881); experiment: Two-hybrid gene switch assay, luciferase reporter, BmEcR, mouse NIH3T3 cells; format: cell-based; conditions: FIG. 13A/13B; BmEcR, GAL4-EcR(DEF) with VP16-RXR-USP chimera; read-out: EC50
# [4] = target: T2, MsEcR (GAL4-EcR DEF with VP16-RXR-USP chimera) (Manduca sexta, UniProt P49883); experiment: Two-hybrid gene switch assay, luciferase reporter, MsEcR, mouse NIH3T3 cells; conditions: EC50, FIG. 13A/13B, GAL4-EcR(DEF) with VP16-RXR-USP chimera
# T2 sequence (P49883 1-556): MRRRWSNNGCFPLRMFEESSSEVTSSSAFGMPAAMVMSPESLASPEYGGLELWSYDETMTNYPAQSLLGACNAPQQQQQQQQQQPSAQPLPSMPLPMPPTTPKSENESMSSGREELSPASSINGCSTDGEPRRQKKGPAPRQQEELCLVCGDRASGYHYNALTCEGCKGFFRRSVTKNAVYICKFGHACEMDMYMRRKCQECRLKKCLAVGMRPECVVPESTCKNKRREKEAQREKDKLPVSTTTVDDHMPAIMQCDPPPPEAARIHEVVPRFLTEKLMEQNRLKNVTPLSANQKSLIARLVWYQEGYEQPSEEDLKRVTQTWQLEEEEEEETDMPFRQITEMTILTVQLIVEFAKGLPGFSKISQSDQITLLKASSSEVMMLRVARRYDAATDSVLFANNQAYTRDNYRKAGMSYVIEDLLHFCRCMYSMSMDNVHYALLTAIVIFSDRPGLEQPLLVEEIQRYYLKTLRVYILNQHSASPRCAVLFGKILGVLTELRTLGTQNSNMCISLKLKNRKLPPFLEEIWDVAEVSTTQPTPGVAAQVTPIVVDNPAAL
# T2 sequence (P28702 1-533 partner): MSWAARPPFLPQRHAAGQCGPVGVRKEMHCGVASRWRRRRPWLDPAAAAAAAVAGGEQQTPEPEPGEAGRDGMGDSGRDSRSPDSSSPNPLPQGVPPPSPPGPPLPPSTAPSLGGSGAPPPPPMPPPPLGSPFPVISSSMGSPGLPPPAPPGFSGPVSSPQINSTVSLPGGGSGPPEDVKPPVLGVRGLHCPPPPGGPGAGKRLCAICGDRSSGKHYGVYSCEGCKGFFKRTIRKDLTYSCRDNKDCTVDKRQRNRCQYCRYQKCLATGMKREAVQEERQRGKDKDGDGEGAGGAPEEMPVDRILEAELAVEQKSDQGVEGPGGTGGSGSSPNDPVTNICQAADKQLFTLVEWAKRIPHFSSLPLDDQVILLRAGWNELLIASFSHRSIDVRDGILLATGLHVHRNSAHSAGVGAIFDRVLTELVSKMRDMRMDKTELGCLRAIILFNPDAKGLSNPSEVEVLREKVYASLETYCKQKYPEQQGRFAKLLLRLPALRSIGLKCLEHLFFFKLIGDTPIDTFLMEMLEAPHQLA
# [5] = target: wild-type Aedes aegypti EcR (AaEcR; GAL4-EcR DEF with VP16-RXR-USP chimera) (Aedes aegypti, UniProt P49880); experiment: Two-hybrid gene switch assay, luciferase reporter, wild-type AaEcR, mouse NIH3T3 cells; format: cell-based; conditions: FIG. 14A/14B, GAL4-EcR(DEF) with VP16-RXR-USP chimera, read-out: EC50
# [6] = target: T3, BaEcR (GAL4-EcR DEF with VP16-RXR-USP chimera) (Bemisia tabaci, UniProt A0A6M3RDR8); experiment: Two-hybrid gene switch assay, luciferase reporter, BaEcR, mouse NIH3T3 cells; conditions: EC50, FIG. 14A/14B, GAL4-EcR(DEF) with VP16-RXR-USP chimera
# T3 sequence (A0A6M3RDR8 115-530): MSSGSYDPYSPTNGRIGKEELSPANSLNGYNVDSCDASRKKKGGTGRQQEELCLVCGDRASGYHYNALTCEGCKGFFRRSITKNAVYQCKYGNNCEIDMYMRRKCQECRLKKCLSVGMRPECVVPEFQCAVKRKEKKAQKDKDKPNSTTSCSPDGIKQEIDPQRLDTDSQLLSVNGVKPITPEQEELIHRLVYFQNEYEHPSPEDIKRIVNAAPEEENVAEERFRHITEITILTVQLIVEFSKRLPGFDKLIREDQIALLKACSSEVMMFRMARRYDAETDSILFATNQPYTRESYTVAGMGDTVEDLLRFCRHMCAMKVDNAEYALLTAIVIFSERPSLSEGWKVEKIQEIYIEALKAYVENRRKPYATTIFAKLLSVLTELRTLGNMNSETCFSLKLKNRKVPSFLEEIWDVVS
# T3 sequence (P28702 1-533 partner): T2 sequence (P28702 1-533 partner)
# [7] = test system: NcEcR (GAL4-EcR DEF with VP16-RXR partner); experiment: Two-hybrid gene switch assay, luciferase reporter, NcEcR, mouse NIH3T3 cells; conditions: FIG. 14A/14B, GAL4-EcR(DEF)
# [8] = target: wild-type Drosophila melanogaster EcR (DmEcR; GAL4-EcR DEF with VP16-RXR-USP chimera) (Drosophila melanogaster, UniProt P34021); experiment: Two-hybrid gene switch assay, luciferase reporter, wild-type DmEcR, mouse NIH3T3 cells; format: cell-based; conditions: FIG. 14A/14B, GAL4-EcR(DEF) with VP16-RXR-USP chimera, read-out: EC50
# [9] = target: T4, AmaEcR (GAL4-EcR DEF with VP16-RXR-USP chimera) (Amblyomma americanum, UniProt O44338); experiment: Two-hybrid gene switch assay, luciferase reporter, AmaEcR, mouse NIH3T3 cells; conditions: EC50, FIG. 14A/14B, GAL4-EcR(DEF) with VP16-RXR-USP chimera
# T4 sequence (O44338 255-570): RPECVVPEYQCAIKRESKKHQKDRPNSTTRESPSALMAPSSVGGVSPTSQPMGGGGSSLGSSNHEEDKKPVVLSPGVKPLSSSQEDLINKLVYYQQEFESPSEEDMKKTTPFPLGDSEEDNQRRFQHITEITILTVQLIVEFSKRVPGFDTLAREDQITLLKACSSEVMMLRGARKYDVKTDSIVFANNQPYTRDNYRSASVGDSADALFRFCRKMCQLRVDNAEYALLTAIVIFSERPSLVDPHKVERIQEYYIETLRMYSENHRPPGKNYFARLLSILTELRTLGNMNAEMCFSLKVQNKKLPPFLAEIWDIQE
# T4 sequence (P28702 1-533 partner): T2 sequence (P28702 1-533 partner)
# [10] = D. melanogaster BII cell line, turbidometric
# Chain of wild-type Aedes aegypti EcR (AaEcR; GAL4-EcR DEF with VP16-RXR-USP chimera) (P49880 with tags, fused parts or gaps limits assumed, change not shown): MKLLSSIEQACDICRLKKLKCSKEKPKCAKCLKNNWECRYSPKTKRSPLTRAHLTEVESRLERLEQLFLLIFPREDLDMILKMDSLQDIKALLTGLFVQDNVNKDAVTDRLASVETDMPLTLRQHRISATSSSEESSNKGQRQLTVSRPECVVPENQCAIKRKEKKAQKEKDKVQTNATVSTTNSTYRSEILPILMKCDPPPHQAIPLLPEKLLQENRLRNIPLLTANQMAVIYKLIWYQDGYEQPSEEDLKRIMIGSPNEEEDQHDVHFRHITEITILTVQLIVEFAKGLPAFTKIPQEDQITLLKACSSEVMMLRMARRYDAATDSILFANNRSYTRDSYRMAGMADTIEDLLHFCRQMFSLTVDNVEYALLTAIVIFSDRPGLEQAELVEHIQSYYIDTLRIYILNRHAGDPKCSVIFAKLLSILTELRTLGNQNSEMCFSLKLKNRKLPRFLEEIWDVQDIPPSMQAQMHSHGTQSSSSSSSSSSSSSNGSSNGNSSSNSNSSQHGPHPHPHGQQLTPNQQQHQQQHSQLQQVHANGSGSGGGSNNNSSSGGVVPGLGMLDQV
# Chain of BmEcR (GAL4-EcR DEF with VP16-RXR-USP chimera) (P49881 other isoform, or with tags, fused parts or gaps, change not shown): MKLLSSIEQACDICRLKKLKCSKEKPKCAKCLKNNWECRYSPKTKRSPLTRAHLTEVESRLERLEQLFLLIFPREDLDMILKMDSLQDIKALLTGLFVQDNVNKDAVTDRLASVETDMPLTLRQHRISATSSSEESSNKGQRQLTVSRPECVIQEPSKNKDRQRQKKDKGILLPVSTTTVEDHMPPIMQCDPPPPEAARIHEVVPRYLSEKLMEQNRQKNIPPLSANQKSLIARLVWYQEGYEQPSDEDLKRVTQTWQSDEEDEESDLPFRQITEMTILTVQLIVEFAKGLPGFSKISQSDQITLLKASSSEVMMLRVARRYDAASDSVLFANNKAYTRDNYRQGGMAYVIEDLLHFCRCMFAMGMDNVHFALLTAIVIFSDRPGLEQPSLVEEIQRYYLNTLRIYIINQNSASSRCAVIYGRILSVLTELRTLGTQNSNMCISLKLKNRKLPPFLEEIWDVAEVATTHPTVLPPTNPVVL
# Chain of wild-type Drosophila melanogaster EcR (DmEcR; GAL4-EcR DEF with VP16-RXR-USP chimera) (P34021 with tags, fused parts or gaps limits assumed): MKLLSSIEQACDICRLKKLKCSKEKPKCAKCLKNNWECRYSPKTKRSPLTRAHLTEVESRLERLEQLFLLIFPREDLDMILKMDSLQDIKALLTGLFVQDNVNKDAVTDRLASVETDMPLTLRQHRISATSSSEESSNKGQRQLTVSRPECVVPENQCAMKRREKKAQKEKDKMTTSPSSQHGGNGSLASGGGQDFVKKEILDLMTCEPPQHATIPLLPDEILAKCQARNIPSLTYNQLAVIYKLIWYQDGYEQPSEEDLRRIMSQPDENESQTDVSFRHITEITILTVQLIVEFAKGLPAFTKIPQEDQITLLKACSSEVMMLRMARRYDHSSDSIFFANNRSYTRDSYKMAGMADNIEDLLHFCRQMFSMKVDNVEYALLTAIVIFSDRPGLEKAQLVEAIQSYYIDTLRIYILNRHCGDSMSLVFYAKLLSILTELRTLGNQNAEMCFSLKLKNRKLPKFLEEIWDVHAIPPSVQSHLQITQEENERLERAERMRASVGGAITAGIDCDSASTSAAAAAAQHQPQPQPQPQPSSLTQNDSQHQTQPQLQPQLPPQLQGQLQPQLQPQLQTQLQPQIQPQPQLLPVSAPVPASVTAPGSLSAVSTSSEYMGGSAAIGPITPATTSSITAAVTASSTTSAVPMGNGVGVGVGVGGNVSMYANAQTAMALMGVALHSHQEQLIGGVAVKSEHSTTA
Structure (SMILES),EC50 ([1]; Drosophila melanogaster) [M],"EC50 [1, 10] [M]",other results
"CCC1(O[C@H](CCC(C)(C)O)[C@](C)(O)C2CC[C@@]3(O)C4=CC(=O)C5C[C@@H](O)[C@@H](O)CC5(C)C4CCC23C)CO1 (stereo partly drawn) [compound 23, 20-hydroxyecdysone, 22-(28R,S)-2′-ethyloxiranyl ether]",2.2e-05,–,–
"CO[C@H](CCC(C)(C)OC)[C@](C)(O)[C@H]1CC[C@@]2(O)C3=CC(=O)[C@@H]4C[C@@H](O)[C@@H](O)C[C@]4(C)[C@H]3CC[C@]12C [compound 14, 20-hydroxyecdysone, 22,25-dimethyl ether]",–,1.2e-07,–
"CO[C@H]1C[C@@]2(C)[C@@H](C[C@H]1O)C(=O)C=C1[C@@H]2CC[C@]2(C)[C@@H]([C@@](C)(O)[C@@H](CCC(C)C)OC)CC[C@@]12O [compound 19, ponasterone A, 2,22-dimethyl ether]",–,3e-08,–
"CO[C@H](CCC(C)(C)O)[C@](C)(O)C1CC[C@@]2(OC)C3=CC(=O)C4C[C@@H](O)[C@@H](O)CC4(C)C3CCC12C (some centres unmarked) [compound 13, 20-hydroxyecdysone, 14,22-dimethyl ether]",2.5e-06,–,–
"CO[C@@]12CC[C@H]([C@@](C)(O)[C@H](O)CCC(C)C)[C@@]1(C)CC[C@H]1C2=CC(=O)[C@@H]2C[C@@H](O)[C@@H](O)C[C@@]21C [compound 17, ponasterone A, 14-methyl ether]",–,6e-08,–
"COC(C)(C)CC[C@@H](O)[C@](C)(O)[C@H]1CC[C@@]2(O)C3=CC(=O)[C@@H]4C[C@@H](O)[C@@H](O)C[C@]4(C)[C@H]3CC[C@]12C [compound 10, 20-hydroxyecdysone-25-methyl ether]",–,6e-08,–
"CO[C@@]12CCC([C@@](C)(O)[C@H](O)CCC(C)(C)O)C1(C)CCC1C2=CC(=O)C2C[C@@H](O)[C@@H](O)CC21C (some centres unmarked) [compound 3, 20-hydroxyecdysone, 14-methyl ether]",3.2e-06,–,–
"CC(C)(O)CC[C@@H](OCc1ccccc1)[C@](C)(O)C1CC[C@@]2(O)C3=CC(=O)C4C[C@@H](O)[C@@H](O)CC4(C)C3CCC12C (some centres unmarked) [compound 9, 20-hydroxyecdysone, 22-benzyl ether]",2.2e-08,–,BII potency relative to 20E [1]: does not decrease 20E potency very much
"CO[C@H]1C[C@@]2(C)[C@@H](C[C@H]1O)C(=O)C=C1[C@@H]2CC[C@]2(C)[C@@H]([C@@](C)(O)[C@@H](CCC(C)(C)O)OC)CC[C@@]12O [compound 11, 20-hydroxyecdysone, 2,22-dimethyl ether]",–,9.3e-07,–
"CO[C@H]1CC2(C)C(C[C@H]1OC)C(=O)C=C1C2CCC2(C)C([C@@](C)(O)[C@@H](CCC(C)(C)O)OC)CC[C@@]12OC (some centres unmarked) [compound 15, 20-hydroxyecdysone, 2,3,14,22-tetramethyl ether]",9e-05,–,–
"CCCO[C@H](CCC(C)(C)O)[C@](C)(O)C1CC[C@@]2(O)C3=CC(=O)C4C[C@@H](O)[C@@H](O)CC4(C)C3CCC12C (some centres unmarked) [compound 6, 20-hydroxyecdysone, 22-n-propyl ether]",8.3e-07,–,–
"C=CCO[C@H](CCC(C)(C)O)[C@](C)(O)C1CC[C@@]2(O)C3=CC(=O)C4C[C@@H](O)[C@@H](O)CC4(C)C3CCC12C (some centres unmarked) [compound 7, 20-hydroxyecdysone, 22-allyl ether]",1.6e-07,–,–
"COC(CCC(C)C)[C@](C)(O)[C@H]1CC[C@@]2(O)C3=CC(=O)[C@@H]4C[C@@H](OC)[C@@H](O)C[C@]4(C)[C@H]3CC[C@]12C (some centres unmarked) [compound 20, ponasterone A, 3,22-dimethyl ether]",–,1.2e-08,–
"CO[C@H](CCC(C)C)[C@](C)(O)[C@H]1CC[C@@]2(OC)C3=CC(=O)[C@@H]4C[C@@H](O)[C@@H](O)C[C@]4(C)[C@H]3CC[C@]12C [compound 21, ponasterone A, 14,22-dimethyl ether]",–,1.7e-07,–
CC(C)(O)CC[C@@H](O)[C@](C)(O)[C@H]1CC[C@@]2(O)C3=CC(=O)[C@H]4C[C@@H](O)[C@@H](O)C[C@]4(C)[C@H]3CC[C@]12C [(5a-H)-20-hydroxyecdysone],–,–,EC50 [2]: > 33000 nM; EC50 [3]: > 33000 nM; EC50 [4]: > 33000 nM; EC50 [5]: ~20000 nM; EC50 [6]: > 33000 nM; EC50 [7]: ~15000 nM; EC50 [8]: > 33000 nM; EC50 [9]: > 33000 nM
